The values that follow are results of earlier work, collected in patent US8466198B2, “Compositions comprising creatine salts and methods of use thereof” (priority 2008, dated 2013).

Regarding `CN(CC(=O)O)C(=N)N` [Creatine], the “average gain in athletic performance” value (creatine ingestion, depending on the measured variable) is recorded as 10 to 15%.

In the case of `CN(CC(=O)O)C(=N)N.O` [creatine monohydrate], the “increase in body mass” value (first week of loading) was 1-2 kilograms. Besides, for the setting “short term supplementation”, the “improvement of maximal power/strength” value is 5-15%, the “improvement of single effort sprint performance” value is reported as 1-5%, the “improvement of work performed during exercise of maximal effort muscle contractions” value is recorded as 5-15% and the “improvement of work performed during repetitive sprint performance” value is on record as 5-15%.
